Assay results published in patent US20090325964A1, “Piperazine Metabotropic Glutamate Receptor 5 (MGLUR5) Negative Allosteric Modulators For Anxiety/Depression” (Wyeth, priority 2008, published 2009).
Like-named read-outs stand apart in the source and are kept apart here. Blank lines part the entries; values can stand above or below the molecule they belong to.

Target: T1, rat mGluR5 receptor (Rattus norvegicus, UniProt P31424)
T1 construct: expressed in transfected cells; host or cells: HEK-293
Test: [3H]-MPEP displacement binding assay, HEK-293 cell membranes expressing rat mGluR5
Details: for IC50: no Ki given, read-out: IC50 (printed in the Median Ki column instead of a Ki); for Ki: read-out: Median Ki
How it was run: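 Membranes from HEK-293 cells expressing rat mGluR5 (12-25 μg protein), incubated 60 min at room temperature with 4 nM [3H]-MPEP in 50 mM Tris pH 7.5, then filtered. Nonspecific binding defined with 10 μM MPEP.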

[1] = @ 10 μM compound, Biological Activity, Table 2A, read-out: PCT INHIB (%) @ 10 μM
[2] = [3H]-MPEP displacement, rat mGluR5
[3] = 1 h, single point, @ 10 μm compound, Table 1A, read-out: PCT INHIB (%) @ 10 μm

T1 sequence (P31424 21-1203): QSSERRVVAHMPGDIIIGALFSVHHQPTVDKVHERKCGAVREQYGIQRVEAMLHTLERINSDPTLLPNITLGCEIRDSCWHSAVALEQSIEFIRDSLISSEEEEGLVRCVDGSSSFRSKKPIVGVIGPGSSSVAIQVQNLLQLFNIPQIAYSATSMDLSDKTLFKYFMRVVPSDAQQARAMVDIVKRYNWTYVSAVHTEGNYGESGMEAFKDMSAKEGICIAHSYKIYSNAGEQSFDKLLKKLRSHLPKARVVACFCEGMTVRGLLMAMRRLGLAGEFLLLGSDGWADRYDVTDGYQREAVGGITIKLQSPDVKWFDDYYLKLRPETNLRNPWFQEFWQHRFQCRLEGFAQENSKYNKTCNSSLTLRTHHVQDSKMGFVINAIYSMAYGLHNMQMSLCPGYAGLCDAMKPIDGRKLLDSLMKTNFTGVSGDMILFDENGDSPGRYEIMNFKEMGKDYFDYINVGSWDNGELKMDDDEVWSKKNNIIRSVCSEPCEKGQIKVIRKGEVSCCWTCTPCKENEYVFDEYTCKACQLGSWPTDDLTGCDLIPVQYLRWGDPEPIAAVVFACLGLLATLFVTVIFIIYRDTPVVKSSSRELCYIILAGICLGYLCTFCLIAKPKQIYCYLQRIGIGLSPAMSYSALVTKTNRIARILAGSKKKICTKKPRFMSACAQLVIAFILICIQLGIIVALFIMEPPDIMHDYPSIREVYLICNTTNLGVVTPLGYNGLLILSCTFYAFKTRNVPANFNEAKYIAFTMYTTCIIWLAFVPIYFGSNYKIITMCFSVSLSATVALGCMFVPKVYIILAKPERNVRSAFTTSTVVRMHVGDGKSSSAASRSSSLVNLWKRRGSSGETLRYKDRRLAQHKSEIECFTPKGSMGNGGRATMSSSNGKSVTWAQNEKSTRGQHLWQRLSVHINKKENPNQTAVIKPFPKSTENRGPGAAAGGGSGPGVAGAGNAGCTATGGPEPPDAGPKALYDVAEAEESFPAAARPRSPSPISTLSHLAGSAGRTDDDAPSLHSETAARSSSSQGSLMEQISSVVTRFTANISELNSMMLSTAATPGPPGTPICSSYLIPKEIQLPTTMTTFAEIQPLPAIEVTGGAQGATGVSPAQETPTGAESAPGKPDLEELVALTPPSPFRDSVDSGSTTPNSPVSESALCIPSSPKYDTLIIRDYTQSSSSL

Structure (SMILES): Cc1cc(C)nc(N2CCN(C(=O)c3cncc(C#Cc4ccccc4)c3)CC2)n1 [Compound 136, 4,6-dimethyl-2-(4-{[5-(phenylethynyl)pyridin-3-yl]carbonyl}piperazin-1-yl)pyrimidine]
inhibition at 10 µM [1]: 0%

Structure (SMILES): COc1ccc(C(=O)N2CCN(c3cnccn3)CC2)cc1C#Cc1cccc(Cl)c1 [Compound 65, 2-(4-{3-[(3-chlorophenyl)ethynyl]-4-methoxybenzoyl}piperazin-1-yl)pyrazine]
Ki: 2.11 nM

Structure (SMILES): O=C(c1cncc(C#Cc2ccccc2)c1)N1CCN(c2ncccn2)CC1 [Compound 130, 2-(4-{[5-(phenylethynyl)pyridin-3-yl]carbonyl}piperazin-1-yl)pyrimidine]
inhibition at 10 µM [1]: 47%

Structure (SMILES): Cc1cccc(C)c1N1CCN(C(=O)c2cccc(C#Cc3ccccc3)c2)CC1 [Compound 78, 1-(2,6-dimethylphenyl)-4-[3-(phenylethynyl)benzoyl]piperazine]
inhibition at 10 µM [1]: 53%
Ki (Biological Activity, Table 2A): > 10000 nM

Structure (SMILES): O=C(c1ccnc(C#Cc2ccccc2)c1)N1CCN(c2ccncc2)CC1 [Compound 144, 1-[2-(phenylethynyl)isonicotinoyl]-4-pyridin-4-ylpiperazine]
inhibition at 10 µM [1]: 10%

Structure (SMILES): Cc1ccc(C(=O)N2CCN(c3ccccn3)CC2)cc1C#Cc1cccc(N)c1 [Compound 36, 3-({2-methyl-5-[(4-pyridin-2-ylpiperazin-1-yl)carbonyl]phenyl}ethynyl)aniline]
inhibition at 10 µM [3]: 79%
Ki: 474 nM

Structure (SMILES): O=C(c1ccnc(C#Cc2ccccc2)c1)N1CCN(c2ncccn2)CC1 [Compound 120, 2-{4-[2-(phenylethynyl)isonicotinoyl]piperazin-1-yl}pyrimidine]
inhibition at 10 µM [1]: 49%
Ki (Biological Activity, Table 2A): 2890 nM

Structure (SMILES): N#Cc1ccc(N2CCN(C(=O)c3cccc(C#Cc4ccccn4)c3)CC2)nc1 [Compound 96, 6-{4-[3-(pyridin-2-ylethynyl)benzoyl]piperazin-1-yl}nicotinonitrile]
inhibition at 10 µM [1]: 50%
Ki (Biological Activity, Table 2A): 3240 nM

Structure (SMILES): Cc1ccc(C(=O)N2CCN(c3ccccn3)CC2)cc1C#Cc1cccnc1 [Compound 32, 1-[4-methyl-3-(pyridin-3-ylethynyl)benzoyl]-4-pyridin-2-ylpiperazine]
inhibition at 10 µM [3]: 68%
Ki: 3110 nM

Continued, values first:

IC50 [2]: > 10 µM
Structure (SMILES): COc1ccc(C(=O)N2CCN(c3ncccc3Cl)CC2)cc1C#Cc1ccc(C(C)=O)cc1 [Compound 347, 1-{4-[(5-{[4-(3-chloropyridin-2-yl)piperazin-1-yl]carbonyl}-2-methoxyphenyl)ethynyl]phenyl}ethanone]

Ki ([3H]-MPEP displacement, rat mGluR5 membranes): 459 nM
Structure (SMILES): N#Cc1nccnc1N1CCN(C(=O)c2ccc(C(F)(F)F)c(C#Cc3ccccn3)c2)CC1 [Compound 366, 3-(4-{[3-(pyridin-2-ylethynyl)-4-(trifluoromethyl)phenyl]carbonyl}piperazin-1-yl) pyrazine-2-carbonitrile]

Ki [2]: 270 nM
Structure (SMILES): O=C(c1ccc(F)c(C#Cc2ccccn2)c1)N1CCN(c2ncccc2Cl)CC1 [Compound 315, 1-(3-chloropyridin-2-yl)-4-[4-fluoro-3-(pyridin-2-ylethynyl)benzoyl]piperazine]

Ki ([3H]-MPEP 4 nM, Table 4A): > 10000 nM
Structure (SMILES): CCc1cccc(OCc2cccc(C(=O)N3CCN(c4ccccn4)CC3)c2)c1 [Compound 166, 1-{3-[(3-ethylphenoxy)methyl]benzoyl}-4-pyridin-2-ylpiperazine]

IC50 [2]: > 10 µM
Structure (SMILES): COc1ccc(C(=O)N2CCN(c3ncccc3Cl)CC2)cc1C#Cc1cccc(OCc2ccccc2)c1 [Compound 343, 1-(3-{[3-(benzyloxy)phenyl]ethynyl}-4-methoxybenzoyl)-4-(3-chloropyridin-2-yl)piperazine]

Ki [2]: 2840 nM
Structure (SMILES): COc1ccc(C(=O)N2CCN(c3ccccc3C(F)(F)F)CC2)cc1C#Cc1ccccn1 [Compound 246, 1-[4-methoxy-3-(pyridin-2-ylethynyl)benzoyl]-4-[2-(trifluoromethyl)phenyl]piperazine]

Ki [2]: 876 nM
Structure (SMILES): COc1ccc(C(=O)N2CCN(S(=O)(=O)c3ccccc3Cl)CC2)cc1C#Cc1ccccn1 [Compound 278, 1-[(2-chlorophenyl)sulfonyl]-4-[4-methoxy-3-(pyridin-2-ylethynyl)benzoyl]piperazine]
